Experimental data reported in ChEMBL document CHEMBL3734743, “Potent complement C3a receptor agonists derived from oxazole amino acids: Structure-activity relationships” (Bioorg Med Chem Lett, 2015).
Active and inactive are the calls of the source. The rule behind the calls is not given here.

Assays:
[1] = molecular target: T1, C3a anaphylatoxin chemotactic receptor (Homo sapiens, UniProt Q16581); assay: Displacement of [125I]-C3a from C3aR in human MDM cells after 60 mins by microbeta scintillation counting analysis; type: cell-based
T1 sequence (Q16581 whole entry): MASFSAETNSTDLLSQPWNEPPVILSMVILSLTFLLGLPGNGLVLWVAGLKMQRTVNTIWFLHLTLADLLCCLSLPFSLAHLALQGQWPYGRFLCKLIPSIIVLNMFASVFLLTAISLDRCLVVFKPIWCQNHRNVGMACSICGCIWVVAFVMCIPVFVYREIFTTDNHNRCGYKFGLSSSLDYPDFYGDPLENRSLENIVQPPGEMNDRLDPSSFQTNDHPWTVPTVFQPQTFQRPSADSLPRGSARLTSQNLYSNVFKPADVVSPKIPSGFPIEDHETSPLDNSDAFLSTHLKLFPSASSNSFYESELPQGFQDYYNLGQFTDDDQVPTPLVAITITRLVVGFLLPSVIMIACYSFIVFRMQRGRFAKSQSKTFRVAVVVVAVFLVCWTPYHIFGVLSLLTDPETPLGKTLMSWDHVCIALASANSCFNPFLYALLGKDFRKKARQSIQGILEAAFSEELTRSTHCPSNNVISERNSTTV

[2] = molecular target: T2, C5a anaphylatoxin chemotactic receptor 1 (Homo sapiens) (UniProt P21730); assay: Displacement of [125I]-C5a from C5aR in human MDM cells at 20 uM after 60 mins by microbeta scintillation counting analysis; type: cell-based
T2 sequence (whole entry): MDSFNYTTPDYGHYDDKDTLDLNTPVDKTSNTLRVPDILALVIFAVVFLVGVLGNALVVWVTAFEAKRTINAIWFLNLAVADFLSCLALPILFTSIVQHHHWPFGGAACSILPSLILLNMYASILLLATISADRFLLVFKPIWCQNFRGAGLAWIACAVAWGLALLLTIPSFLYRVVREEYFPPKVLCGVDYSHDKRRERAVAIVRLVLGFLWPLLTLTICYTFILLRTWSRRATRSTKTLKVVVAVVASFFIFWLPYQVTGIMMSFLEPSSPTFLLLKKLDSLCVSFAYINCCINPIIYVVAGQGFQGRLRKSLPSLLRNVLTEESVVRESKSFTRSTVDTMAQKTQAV

[3] = molecular target: T1, C3a anaphylatoxin chemotactic receptor; assay: Agonist activity at C3aR in human MDM cells assessed as inhibition of C3a-induced Ca2+ response measured for 60 secs by fluorescence assay; type: functional, cell-based
[4] = molecular target: T3, C3a anaphylatoxin chemotactic receptor (Homo sapiens) (UniProt Q16581); assay: Agonist activity at C3aR in human MDM cells assessed as intracellular calcium efflux at 1 uM measured for 60 secs by fluorescence based receptor desensitization assay; type: functional, cell-based
T3 sequence (whole entry): T1 sequence (Q16581 whole entry)

[5] = molecular target: T3, C3a anaphylatoxin chemotactic receptor (Homo sapiens); assay: Agonist activity at C3aR in human MDM cells assessed as induction of intracellular Ca2+ release measured for 60 secs in presence of C3a antagonist SB290157 by fluorescence assay; type: functional, cell-based
[6] = molecular target: T3, C3a anaphylatoxin chemotactic receptor (Homo sapiens); assay: Displacement of [125I]-C3a from C3aR in human MDM cells at 10 uM after 60 mins by microbeta scintillation counting analysis; type: cell-based

| Compound | IC50 [1] [nM] | inhibition [2] | EC50 [3] [nM] | Activity [4] | Activity [5] | inhibition [6] |
| --- | --- | --- | --- | --- | --- | --- |
| Cc1oc([C@H](CC(C)C)NC(=O)OC(C)(C)C)nc1C(=O)N[C@@H](CCCNC(=N)N)C(=O)O | 14 | inactive | 45 | inactive | inactive | – |
| CC(C)C[C@H](NC(=O)OC(C)(C)C)c1nc(C(=O)N[C@@H](CCCNC(=N)N)C(=O)O)co1 | 20 | inactive | 19 | inactive | – | – |
| CC(C)C[C@H](NC(=O)OC(C)(C)C)c1nc(C(=O)N[C@@H](CCCNC(N)=O)C(=O)O)co1 | – | inactive | – | – | – | inactive |
| CC(C)C[C@H](NC(=O)c1c[nH]c2ccccc12)c1nc(C(=O)N[C@@H](CCCNC(=N)N)C(=O)O)co1 | – | inactive | – | inactive | inactive | – |
| CC[C@H](C)[C@H](NC(=O)c1cncc(Br)c1)c1nc(C(=O)NCCCCNC(=N)N)c(C)o1 | – | inactive | – | – | – | inactive |
